Biological target: ThyX (Rv2754c), flavin-dependent thymidylate synthase (Mycobacterium tuberculosis, UniProt P9WG57)
Experiment: intrinsic fluorescence quenching, modified Stern-Volmer
Format: binding
Conditions: 303 K, 5 µM protein, n ~1, double-log
Source text: intrinsic fluorescence quenching, modified Stern-Volmer on ThyX (Rv2754c), flavin-dependent thymidylate synthase

ThyX (Rv2754c), flavin-dependent thymidylate synthase, sequence (P9WG57 whole entry, looked up): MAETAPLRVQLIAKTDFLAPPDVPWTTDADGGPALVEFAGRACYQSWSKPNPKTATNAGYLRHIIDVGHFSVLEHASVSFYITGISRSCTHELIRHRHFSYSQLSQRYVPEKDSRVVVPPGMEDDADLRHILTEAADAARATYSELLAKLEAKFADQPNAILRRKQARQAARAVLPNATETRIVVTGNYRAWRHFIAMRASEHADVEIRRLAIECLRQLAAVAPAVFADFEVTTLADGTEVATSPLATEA

Row | SMILES | Ka (× 10^6 mol^-1) (PBS pH 7.4, excitation 280 nm) | Ka (× 10^6 mol^-1) (positive control, text prints unit as M^−1s^−1)
1 | Nc1ccc(O)c(C(=O)O)c1 [mesalazine] | 4.73 × 10^6 mol^−1 | –
2 | NC(=O)N[C@@H](CCC(=O)O)C(=O)O [carglumic acid] | 4.28 × 10^6 mol^−1 | –
3 | Nc1ccc(C(=O)O)c(O)c1 [para-amino salicylic acid, reference compound] | – | 3.44 × 10^6 mol^−1

From publication PMC12584634, “Carglumic acid and mesalazine as potential anti-mycobacterial agents: a spectroscopic study for repurposing drugs against Mycobacterium tuberculosis targeting its essential enzyme ThyX” (Microbiology Spectrum, 2025)
